We go through 20 compounds from patent publication US20200207734A1, “HETEROCYCLIC COMPOUND AND USE THEREOF” (Takeda Pharmaceutical Company Limited, priority 2017, published 2020).

In the first assay the target is T1, human orexin type 2 receptor (Homo sapiens, UniProt O43614).
T1 construct: human orexin type 2 receptor cDNA was inserted into pcDNA3.1(+) plasmid vector (Invitrogen); expressed in transfected cells
T1 sequence (O43614 1-444): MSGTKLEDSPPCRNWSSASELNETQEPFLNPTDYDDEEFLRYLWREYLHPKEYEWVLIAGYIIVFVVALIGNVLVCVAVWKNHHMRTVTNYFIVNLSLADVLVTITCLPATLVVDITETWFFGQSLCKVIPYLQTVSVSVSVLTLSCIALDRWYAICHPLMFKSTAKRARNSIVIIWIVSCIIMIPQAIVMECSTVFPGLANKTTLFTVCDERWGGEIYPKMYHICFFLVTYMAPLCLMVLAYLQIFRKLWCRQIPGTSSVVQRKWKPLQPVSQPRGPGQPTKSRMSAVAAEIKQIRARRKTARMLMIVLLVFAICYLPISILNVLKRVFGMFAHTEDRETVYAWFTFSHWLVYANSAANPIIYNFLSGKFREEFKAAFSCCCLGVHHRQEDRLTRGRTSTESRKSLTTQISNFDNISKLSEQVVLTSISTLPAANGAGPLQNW
The assay is described as follows: Measurement of orexin type 2 receptor agonist activity (calcium fluorescence, CHO cells expressing hOX2R). In kind it is cell-based. To be noted: test compound 3 μM; CHO cells expressing human OX2 receptor; DMSO = 0%, orexin A (human) = 100%. In short, it runs like this: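 CHO-dhfr cells stably expressing hOX2R, loaded with Fluo-4 AM in HBSS/20 mM HEPES/0.1% BSA with probenecid, then given test compound. Calcium fluorescence was read for about 2 min 40 sec. Activity (%) was scaled between DMSO (0%) and 10 nM final human orexin A (100%).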
In the case of `CCS(=O)(=O)N[C@H]1CCN(C(=O)N2CCC2)[C@H]1Cc1cccc(-c2cc(F)cc(F)c2)c1` [Example 362, N-((2S,3S)-1-(azetidin-1-ylcarbonyl)-2-((3′,5′-difluorobiphenyl-3-yl)methyl)pyrrolidin-3-yl)ethanesulfonamide], the “OX2R agonist activity (3 μM, %)” value worked out at 103%.
As for `CCS(=O)(=O)N[C@H]1CCN(C(=O)N2CCC2)[C@H]1Cc1cccc(-c2ccccc2)c1` [Example 364, N-((2S,3S)-1-(azetidin-1-ylcarbonyl)-2-(biphenyl-3-ylmethyl)pyrrolidin-3-yl)ethanesulfonamide], the “OX2R agonist activity (3 μM, %)” value came out at 104%.
In the case of `CC(C)(O)C(=O)N1CC[C@H](NS(=O)(=O)C(F)F)[C@@H]1Cc1cccc(-c2cc(F)cc(F)c2)c1F` [Example 424, 1,1-difluoro-N-((2S,3S)-1-(2-hydroxy-2-methylpropanoyl)-2-((2,3′,5′-trifluorobiphenyl-3-yl)methyl)pyrrolidin-3-yl)methanesulfonamide], the “OX2R agonist activity (3 μM, %)” value is 101%.
`CC(C)(O)C(=O)N1CC[C@H](NS(C)(=O)=O)[C@@H]1Cc1cccc(-c2cc(F)cc(Cl)c2)c1F` [Example 428, N-((2S,3S)-2-((3′-chloro-2,5′-difluorobiphenyl-3-yl)methyl)-1-(2-hydroxy-2-methylpropanoyl)pyrrolidin-3-yl)methanesulfonamide]: the “OX2R agonist activity (3 μM, %)” value came out at 102%.
The same measure, in the same setting: for `CCS(=O)(=O)N[C@H]1CCN(C(=O)C(C)(C)O)[C@H]1Cc1cccc(-c2cccc(Cl)c2)c1F` [Example 431, N-((2S,3S)-2-((3′-chloro-2-fluorobiphenyl-3-yl)methyl)-1-(2-hydroxy-2-methylpropanoyl)pyrrolidin-3-yl)ethanesulfonamide] the value was 101%; for `CCS(=O)(=O)N[C@H]1CCN(C(=O)C(C)(C)O)[C@H]1Cc1cccc(-c2cc(F)cc(F)c2)c1F` [Example 435, N-((2S,3S)-1-(2-hydroxy-2-methylpropanoyl)-2-((2,3′,5′-trifluorobiphenyl-3-yl)methyl)pyrrolidin-3-yl)ethanesulfonamide], 107%.
Consider `CCS(=O)(=O)N[C@H]1CCN(C(=O)C(C)(C)O)[C@H]1Cc1cccc(-c2cc(F)cc(Cl)c2)c1F` [Example 437, N-((2S,3S)-2-((3′-chloro-2,5′-difluorobiphenyl-3-yl)methyl)-1-(2-hydroxy-2-methylpropanoyl)pyrrolidin-3-yl)ethanesulfonamide], for which the “OX2R agonist activity (3 μM, %)” value was found to be 99%.
Take `CC(C)(O)C(=O)N1CC[C@H](NS(=O)(=O)C2CC2)[C@@H]1Cc1cccc(-c2cc(F)cc(F)c2)c1F` [Example 439, N-((2S,3S)-1-(2-hydroxy-2-methylpropanoyl)-2-((2,3′,5′-trifluorobiphenyl-3-yl)methyl)pyrrolidin-3-yl)cyclopropanesulfonamide]: the “OX2R agonist activity (3 μM, %)” value is listed as 98%.
Consider `CS(=O)(=O)N[C@H]1CCN(C(=O)C2CCO2)[C@H]1Cc1cccc(-c2cc(F)cc(F)c2)c1F` (stereo partly drawn) [Example 441, N-{(2S,3S)-1-(oxetane-2-carbonyl)-2-[(2,3′,5′-trifluoro[1,1′-biphenyl]-3-yl)methyl]pyrrolidin-3-yl}methanesulfonamide], for which the “OX2R agonist activity (3 μM, %)” value is 99%.
With `CC(C)(CO)C(=O)N1CC[C@H](NS(C)(=O)=O)[C@@H]1Cc1cccc(-c2cc(F)cc(F)c2)c1F` [Example 457, N-{(2S,3S)-1-(3-hydroxy-2,2-dimethylpropanoyl)-2-[(2,3′,5′-trifluoro[1,1′-biphenyl]-3-yl)methyl]pyrrolidin-3-yl}methanesulfonamide], the “OX2R agonist activity (3 μM, %)” value is on record as 103%.
As for `O=C(N1CCC1)N1CC[C@H](NS(=O)(=O)CF)[C@@H]1Cc1cccc(-c2cccc(F)c2)c1` [Example 459, N-{(2S,3S)-1-(azetidine-1-carbonyl)-2-[(3′-fluoro[1,1′-biphenyl]-3-yl)methyl]pyrrolidin-3-yl}-1-fluoromethanesulfonamide], the “OX2R agonist activity (3 μM, %)” value came out at 93%.
`O=C(N1CCC1)N1CC[C@H](NS(=O)(=O)CF)[C@@H]1Cc1cccc(-c2ccccc2)c1` [Example 460, N-{(2S,3S)-1-(azetidine-1-carbonyl)-2-[([1,1′-biphenyl]-3-yl)methyl]pyrrolidin-3-yl}-1-fluoromethanesulfonamide]: the “OX2R agonist activity (3 μM, %)” value came to 92%.
For the compound `O=C(N1CCC1)N1CC[C@H](NS(=O)(=O)C2CC2)[C@@H]1Cc1cccc(-c2cccc(F)c2)c1` [Example 462, N-{(2S,3S)-1-(azetidine-1-carbonyl)-2-[(3′-fluoro[1,1′-biphenyl]-3-yl)methyl]pyrrolidin-3-yl}cyclopropanesulfonamide], the “OX2R agonist activity (3 μM, %)” value is recorded as 112%.
`O=C(N1CCC1)N1CC[C@H](NS(=O)(=O)C2CC2)[C@@H]1Cc1cccc(-c2ccccc2)c1` [Example 463, N-{(2S,3S)-1-(azetidine-1-carbonyl)-2-[([1,1′-biphenyl]-3-yl)methyl]pyrrolidin-3-yl}cyclopropanesulfonamide]: the “OX2R agonist activity (3 μM, %)” value amounted to 105%.
Regarding `O=C(N1CCC1)N1CC[C@H](NS(=O)(=O)CF)[C@@H]1Cc1cccc(-c2ccccc2)c1F` [Example 466, N-{(2S,3S)-1-(azetidine-1-carbonyl)-2-[(2-fluoro[1,1′-biphenyl]-3-yl)methyl]pyrrolidin-3-yl}-1-fluoromethanesulfonamide], the “OX2R agonist activity (3 μM, %)” value was determined as 108%.
On the same count and under the same terms, the figure for `O=C(N1CCC1)N1CC[C@H](NS(=O)(=O)CF)[C@@H]1Cc1cccc(-c2cccc(F)c2)c1F` [Example 467, N-{(2S,3S)-1-(azetidine-1-carbonyl)-2-[(2,3′-difluoro[1,1′-biphenyl]-3-yl)methyl]pyrrolidin-3-yl}-1-fluoro-methanesulfonamide] is 101%.
Consider `CCS(=O)(=O)N[C@H]1CCN(C(=O)C2CCC2)[C@H]1Cc1cccc(-c2ccccc2)c1` [Example 471, N-[(2S,3S)-2-[([1,1′-biphenyl]-3-yl)methyl]-(cyclobutanecarbonyl)pyrrolidin-3-yl]ethanesulfonamide], for which the “OX2R agonist activity (3 μM, %)” value was 116%.
With `CC(C)(O)C(=O)N1CC[C@H](NS(=O)(=O)C2(F)CC2)[C@@H]1Cc1cccc(-c2ccccc2)c1F` [Example 479, 1-fluoro-N-[(2S,3S)-2-[(2-fluoro[1,1′-biphenyl]-3-yl)methyl]-1-(2-hydroxy-2-methylpropanoyl)pyrrolidin-3-yl] cyclopropane-1-sulfonamide], the “OX2R agonist activity (3 μM, %)” value amounted to 103%.
As for `CC(C)(O)C(=O)N1CC[C@H](NS(=O)(=O)C2(F)CC2)[C@@H]1Cc1cccc(-c2cc(F)cc(F)c2)c1F` [Example 480, 1-fluoro-N-{(2S,3S)-1-(2-hydroxy-2-methylpropanoyl)-2-[(2,3′,5′-trifluoro[1,1′-biphenyl]-3-yl)methyl]pyrrolidin-3-yl}cyclopropane-1-sulfonamide], the “OX2R agonist activity (3 μM, %)” value is recorded as 113%.
Consider `CCS(=O)(=O)N[C@H]1CCN(C(=O)C(C)(C)O)[C@H]1Cc1cccc(-c2cccc(F)c2)c1F` [Example 488, N-((2S,3S)-2-((2,3′-difluorobiphenyl-3-yl)methyl)-1-(2-hydroxy-2-methylpro-panoyl)pyrrolidin-3-yl)ethanesulfona-mide], for which the “OX2R agonist activity (3 μM, %)” value was determined as 101%.

The subject of a further assay is cynomolgus monkeys. The assay is described as follows: Evaluation of wake-promoting effects in cynomolgus monkeys (EEG/EMG/EOG). In kind it is in vivo. To be noted: Macaca fascicularis, sc, 4 h; 1 mg/kg, s.c., cynomolgus monkeys, administered at ZT12; read-out: Wakefulness time (% of vehicle treatment) (Mean, n = 1-2). The protocol: The wake-promoting effects were evaluated by measuring the electroencephalogram (EEG), electromyogram (EMG) and electrooculogram (EOG) in cynomolgus monkeys. Under isoflurane anesthesia (1-5%, Pfizer Japan Inc., Tokyo, Japan), male cynomolgus monkeys (3-5 years old, Hamri Co., Ltd., Ibaraki, Japan) were surgically implanted with radio-telemetry transmitters (TL10M3-D70-EEE, Data Sciences International Inc., MN, USA). EEG leads were stereotaxically positioned at the parietal area and secured to the cranium with stainless-steel screws in contact with the dura. […] Bilateral EMG leads were implanted into the back cervical muscles. After the surgery, each monkey was given penicillin (100,000 units/head, i.m., Meiji Seika Pharma Co., Ltd., Tokyo, Japan), buprenorphine (0.02 mg/kg, i.m., Otsuka Pharmaceutical Co., Ltd., Tokyo, Japan) and prednisolone (1 mg/kg, s.c., Kyoritsu Seiyaku Co., Ltd., Tokyo, Japan) daily for one week. After at least a 1-month recovery period in home cages, the monkeys were habituated to the recording chamber (an acrylic cage 60W×55D×75H (cm)) located in a soundproof, electrically shielded room. After we confirmed that monkeys slept sufficiently in the experimental room, cortical EEG, EMG and EOG signals were recorded using Dataquest ART software (Data Sciences International Inc., MN, USA). The signals were semi automatically scored in 20 sec epochs by a sleep scoring system (SleepSign, Kissei Comtec Co., Ltd., Nagano, Japan). This preliminary scoring was visually inspected and corrected if necessary. Test compound (10 mg/kg, Table 4-1) suspended in 0.5% methylcellulose aqueous solution, or vehicle (i.e., 0.5% methylcellulose aqueous solution) was administered orally (p.o.) to monkeys at zeitgeber time 12 (ZT12) in a volume of 5 mL/kg body weight in a cross-over design. EEG, EMG and EOG recordings were performed for 4 h after the compound administration/treatments. The time spent in wakefulness for 4 h after administration (% of vehicle treatment) was calculated by using SleepSign. Test compound (1 mg/kg, Table 4-2) dissolved in a mixed solution comprising 5% DMSO, 5% Cremophor EL, 20% PEG400 and 70% soluplus (1% (w/v)), or vehicle (i.e., a mixed solution comprising 5% DMSO, 5% Cremophor EL, 20% PEG400 and 70% soluplus (1% (w/v))) was administered subcutaneously (s.c.) to monkeys at ZT12 in a volume of 0.5 mL/kg body weight in a pre-post design. EEG, EMG and EOG recordings were performed for 4 h after the compound administration/treatments. The time spent in wakefulness for 4 h after administration (% of vehicle treatment) was calculated by using SleepSign.
Turning to `CCS(=O)(=O)N[C@H]1CCN(C(=O)N2CCC2)[C@H]1Cc1cccc(-c2cc(F)cc(F)c2)c1` [Example 362, N-((2S,3S)-1-(azetidin-1-ylcarbonyl)-2-((3′,5′-difluorobiphenyl-3-yl)methyl)pyrrolidin-3-yl)ethanesulfonamide], the response vs control in vivo at 1 mg/kg was determined as 271%.
Take `CCS(=O)(=O)N[C@H]1CCN(C(=O)N2CCC2)[C@H]1Cc1cccc(-c2ccccc2)c1` [Example 364, N-((2S,3S)-1-(azetidin-1-ylcarbonyl)-2-(biphenyl-3-ylmethyl)pyrrolidin-3-yl)ethanesulfonamide]: the response vs control in vivo at 1 mg/kg turned out to be 375%.
